Assay results reported in patent publication US8921563B2, “1-[(4-hydroxypiperidin-4-yl)methyl]pyridin-2(1H)-one derivatives, preparation methods and uses thereof” (Institue of Pharmacology and Toxicology Academy of Military …, priority 2010, dated 2014).

Tests used:
5-HT1A receptor = target: T1, 5-HT1A receptor (Rattus norvegicus, UniProt P19327); assay: Screening: competitive binding test to 5-HT1A receptor using [3H]-8-OH-DPAT, rat hippocampi membrane protein; conditions: [3H]-8-OH-DPAT 1.28 nM; for inhibition at 10 µM / inhibition at 0.1 µM: read-out: Inhibition percent (I %), competitive binding to 5-HT1A receptor
T1 construct: the content of 5-HT1A receptor extracted from rat hippocampi was 5.5 mg/ml; from tissue; host or cells: Wistar rat hippocampus, membrane preparation
T1 sequence (P19327 1-422): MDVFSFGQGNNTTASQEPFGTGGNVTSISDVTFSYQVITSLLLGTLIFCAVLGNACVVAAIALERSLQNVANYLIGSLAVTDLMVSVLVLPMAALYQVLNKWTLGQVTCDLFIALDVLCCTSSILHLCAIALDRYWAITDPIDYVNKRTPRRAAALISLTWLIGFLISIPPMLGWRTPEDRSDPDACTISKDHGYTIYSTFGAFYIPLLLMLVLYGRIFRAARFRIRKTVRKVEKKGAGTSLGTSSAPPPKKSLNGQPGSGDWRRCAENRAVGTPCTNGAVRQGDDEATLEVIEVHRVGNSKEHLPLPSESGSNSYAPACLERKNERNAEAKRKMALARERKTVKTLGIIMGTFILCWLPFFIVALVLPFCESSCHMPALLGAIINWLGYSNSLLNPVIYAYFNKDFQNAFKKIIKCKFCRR
Protocol: 1.4.1 Screening of YL Series Compounds
(1) Preparation of Membrane Proteins in Rat Hippocampi
Wister rats, 220-260 g, female and male, were sacrificed by decapitation and hippocampis were rapidly separated, weighed and to which homogenized in 10 times volume of Tris-HCl buffer solution (50 mM Tris-HCl, 5 mM MgCl2,1 mM EDTA, 0.5% (WN) BSA, 1 mM PMSF, 3 μg/ml proteinase inhibitor, 0.1% NaN3, 0.32M sucrose, pH 7.4) at 15,000 rpm for 30 s, total 5 times. The homogenate was centrifuged under 1000×g for 10 minutes and the supernatant was then centrifuged under 39000×g for 10 minutes. The precipitate was collected, and resuspended with 10 times volume of Tris-HCl buffer solution (pH 7.4) relative to the original weight, then centrifuged under 39000×g for 10 minutes. The precipitate was washed with the same buffer solution, centrifuged under 39000×g for 10 minutes and the precipitate was suspended with the above buffer solution. After sub-packaged (the whole operation procedures were performed under ice bath), the product was stored at −80° C. The protein concentration was measured by Lowrry method.
1) In the 5-HT1A receptor binding test, tubes are firstly placed under reaction condition of 25° C.
2) To all of the tubes, the receptor proteins extracted from rat hippocampi in an amount of 100 μg were added in sequence.
4) To the test tubes, 30 μl of the compound in corresponding concentrations (used for screening: 10^−5, 10^−7, 10^−9M) was added in sequence.
6) Tris-HCl buffer solution (50 mM Tris-HCl, 1 mM EDTA, 5 mM MgCl2, 0.1 mM PMSF, 0.1% NaN3, pH 7.4) was supplied to all of the tubes to reach a volume of 300 μl.
7) The reaction was performed at 25° C. for 1 h.
8) Then samples were applied to 49-type glass fibre filter, vacuum suction filtered, then washed three times with 2 ml ice-cold Tris-HCl buffer solution (50 mM Tris-HCl buffer solution, 1 mM EDTA, 5 mM MgCl2, 1 mM PMSF, 0.1% NaN3, 3 μg/ml proteinase inhibitor, pH 7.4). […] The radio-activity was measured by a scintillation counter.

[1] = target: T2, 5-HT transport protein (SERT) (Rattus norvegicus, UniProt P31652); assay: Screening: competitive binding test to SERT using [3H]-citalopram; conditions: [3H]-citalopram 1 nM; for inhibition at 10 µM / inhibition at 0.1 µM: read-out: Inhibition percent (I %), competitive binding to 5-HT transport protein (SERT)
T2 construct: Preparation of Membrane Proteins in Rat Hippocampi; from tissue; host or cells: Wistar rat hippocampus
Protocol: The homogenate was centrifuged under 1000×g for 10 minutes and the supernatant was then centrifuged under 39000×g for 10 minutes. The precipitate was collected, and resuspended with 10 times volume of Tris-HCl buffer solution (pH 7.4) relative to the original weight, then centrifuged under 39000×g for 10 minutes. The precipitate was washed with the same buffer solution, centrifuged under 39000×g for 10 minutes and the precipitate was suspended with the above buffer solution. After sub-packaged (the whole operation procedures were performed under ice bath), the product was stored at −80° C. The protein concentration was measured by Lowrry method.

mice [2] = assay: Forced swim test in mice; type: in vivo; conditions: 40 mg/kg p.o., acute, 1 h before test
Protocol: 2.1.1 Forced Swim Test in Mice
Forced swim test in mice is an acute behavioral despair model established by Porsolt, et al.
(1) Experimental device: a glass cylinder (diameter 13 cm, height 24 cm, containing 10 cm of water maintained at 25).
(2) Experimental method: Male Kunming mice weighing 20-25 g. The mice were gently put in the water 1 h after intragastrically drug administration, and then the duration of immobility in the last 4 min of total 6 min test was recorded.

mice [3] = assay: Tail suspension test in mice; type: in vivo; conditions: 30 mg/kg p.o., acute, 1 h before test
From the text: 2.1.2 Tail Suspension Test in Mice
Tail suspension test in mice is an acute behavioral despair model established by Stem, et al. (1985).
1) Experimental device: an experimental frame with spacing boards which dividing the experimental frame into 2 experimental chambers (20×25×30 cm). A clamp is mounted on a through cross rod in the chamber for clamping mice tail so as to suspend the mice.
2) Experimental method: Male Kunming mice weighing 20-25 g. The mice were intragastrically administered with YL-0911 or vehicle (distilled water). After 1 h, wrap adhesive tape around the mouse's tail in position three quarters of the distance from the base of the tail and then suspend the animals by passing the suspension hook through the adhesive tape 5 cm above the table. The duration of immobility in the last 4 min of total 6 min test was recorded.

mice [4] = assay: Hole board test in mice; type: in vivo; conditions: 10 mg/kg p.o., long-term (23 days)
Protocol: Hole board test, an animal model of anxiety established by Boissie, et al (1962), was performed in mice.
1) Experimental device: a transparent Perspex box (40×40×27 cm) which had four holes (3 cm in diameter, 1.8 cm in depth) in the floor. The distance of each hole center to its closest wall is 10 cm.
2) Experimental method: Male Kunming mice weighing 20-25 g. The mice were intragastrically administered with YL-0911 or vehicle (distilled water). After 23 days, the mice were placed at center of the hole board with their backs facing to the observer. A head dip was scored if the animal's head dipped into the hole at least up to eye level The latency to the first head-dip, the number of head-dips and the time spent in head-dipping were recorded for 5 min.

T2 sequence (P31652 whole entry): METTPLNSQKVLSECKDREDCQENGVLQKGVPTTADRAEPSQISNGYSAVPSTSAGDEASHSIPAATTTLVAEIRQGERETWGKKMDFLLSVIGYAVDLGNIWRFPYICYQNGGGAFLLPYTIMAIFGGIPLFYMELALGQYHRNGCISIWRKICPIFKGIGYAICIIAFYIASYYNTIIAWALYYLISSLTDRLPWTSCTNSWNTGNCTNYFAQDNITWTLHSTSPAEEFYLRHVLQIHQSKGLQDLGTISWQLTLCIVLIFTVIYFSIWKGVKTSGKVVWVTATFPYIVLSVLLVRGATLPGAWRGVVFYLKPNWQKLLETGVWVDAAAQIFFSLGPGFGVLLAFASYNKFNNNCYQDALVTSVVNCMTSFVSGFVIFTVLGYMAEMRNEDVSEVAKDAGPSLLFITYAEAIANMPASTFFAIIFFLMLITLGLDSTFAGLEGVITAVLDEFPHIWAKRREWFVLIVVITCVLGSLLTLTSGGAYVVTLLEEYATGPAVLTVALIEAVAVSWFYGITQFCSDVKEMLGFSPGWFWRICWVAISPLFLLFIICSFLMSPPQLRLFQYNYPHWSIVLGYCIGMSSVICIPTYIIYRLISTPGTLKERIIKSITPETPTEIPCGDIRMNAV

Row | Compound | inhibition at 10 µM (5-HT1A receptor; compound 10^-5 mol/L) [%] | inhibition at 0.1 µM (5-HT1A receptor; compound 10^-7 mol/L) [%] | Inhibition percent (I %), competitive binding to 5-HT1A receptor (5-HT1A receptor; compound 10^-5 mol/L) [%] | Inhibition percent (I %), competitive binding to 5-HT1A receptor (5-HT1A receptor; compound 10^-7 mol/L) [%] | further results
1 | O=c1ccccn1CC1(O)CCN(Cc2ccc(F)cc2)CC1 [Compound 3, 1-{[1-(4-fluorobenzyl)-4-hydroxypiperidin-4-yl]-methyl}-pyridin-2(1H)-one] | 100 | 10 |  |  | 
2 | O=c1ccc(Br)cn1CC1(O)CCN(Cc2ccccc2)CC1 [Compound 5, 5-bromo-1-[(1-benzyl-4-hydroxypiperidin-4-yl)-methyl]-pyridin-2(1H)-one] | 94 | 62 |  |  | inhibition at 10 µM ([1]; compound 10^-5 mol/L): 100%; inhibition at 0.1 µM ([1]; compound 10^-7 mol/L): 77%
3 | O=c1ccc(Br)cn1CC1(O)CCN(Cc2ccccc2F)CC1 [Compound 6, 5-bromo-1-{[1-(2-fluorobenzyl)-4-hydroxypiperidin-4-yl]-methyl}-pyridin-2(1H)-one] | 100 | 74 |  |  | inhibition at 10 µM ([1]; compound 10^-5 mol/L): 87%; inhibition at 0.1 µM ([1]; compound 10^-7 mol/L): 44%
4 | O=c1ccc(Br)cn1CC1(O)CCN(Cc2ccc(F)cc2)CC1 [Compound 7, 5-bromo-1-{[1-(4-fluorobenzyl)-4-hydroxypiperidin-4-yl]-methyl}-pyridin-2(M)-one] |  |  | 59 | 2 | 
5 | O=c1ccccn1CC1(O)CCN(Cc2ccccc2F)CC1 [Compound 2, 1-{[1-(2-fluorobenzyl)-4-hydroxypiperidin-4-yl]-methyl}-pyridin-2(1H)-one] | 100 | 58 |  |  | inhibition at 10 µM ([1]; compound 10^-5 mol/L): 100%; inhibition at 0.1 µM ([1]; compound 10^-7 mol/L): 50%
6 | CN(C)CCCN1c2ccccc2CCc2ccccc21 [Imipramine, reference compound] |  |  |  |  | Immobility time (s), forced swim test (mice [2]): 88.0 ± 58.2 s
7 | CNCCC(Oc1ccc(C(F)(F)F)cc1)c1ccccc1 (centres unmarked) [Fluoxetine, fluoxetine, reference compound] |  |  |  |  | Immobility time (s), tail suspension test (mice [3]): 56.2 ± 41.7 s; the latency to the first head-dip (mice [4]): 42.70 ± 9.43 s; Number of Head dips (mice [4]; 5 min): 9.60 ± 1.49; Time of head dipping (mice [4]; 5 min): 6.31 ± 1.03 s
8 | O=c1ccccn1CC1(O)CCN(Cc2ccc(F)cc2F)CC1 [Compound 4, 1-{[1-(2,4-difluorobenzyl)-4-hydroxypiperidin-4-yl]-methyl}-pyridin-2(1H)-p-one] |  |  | 100 | 57 | Inhibition percent (I %), competitive binding to 5-HT transport protein (SERT) ([1]; compound 10^-5 mol/L): 100%; Inhibition percent (I %), competitive binding to 5-HT transport protein (SERT) ([1]; compound 10^-7 mol/L): 58%

Second part, led by results:

Row | inhibition at 10 µM (5-HT1A receptor; compound 10^-5 mol/L) [%] | inhibition at 0.1 µM (5-HT1A receptor; compound 10^-7 mol/L) [%] | Inhibition percent (I %), competitive binding to 5-HT1A receptor (5-HT1A receptor; compound 10^-5 mol/L) [%] | Inhibition percent (I %), competitive binding to 5-HT1A receptor (5-HT1A receptor; compound 10^-7 mol/L) [%] | Compound | further results
9 |  |  | 76 | 37 | Cc1ccn(CC2(O)CCN(Cc3ccccc3F)CC2)c(=O)c1 [Compound 10, 1-{[1-(2-fluorobenzyl)-4-hydroxypiperidin-4-yl]-methyl}-4-methylpyridin-2(M)-one] | 
10 |  |  | 57 | 14 | Cc1ccn(CC2(O)CCN(Cc3ccc(F)cc3)CC2)c(=O)c1 [Compound 11, 1-{[1-(4-fluorobenzyl)-4-hydroxypiperidin-4-yl]-methyl}-4-methylpyridin-2(M)-one] | 
11 |  |  | 61 | 30 | Cc1ccn(CC2(O)CCN(Cc3ccc(F)cc3F)CC2)c(=O)c1 [Compound 12, 1-{[1-(2,4-difluorobenzyl)-4-hydroxypiperidin-4-yl]-methyl}-4-methylpyridin-2(M)-one] | 
12 |  |  | 42 | 19 | O=c1ccc(Br)cn1CC1(O)CCN(Cc2ccc(F)cc2F)CC1 [Compound 8, 5-bromo-1-{[1-(2,4-fluorobenzyl)-4-hydroxypiperidin-4-yl]-methyl}-pyridin-2(M)-one] | 
13 |  |  | 100 | 25 | Cc1ccn(CC2(O)CCN(Cc3ccccc3)CC2)c(=O)c1 [Compound 9, 1-[(1-benzyl-4-hydroxypiperidin-4-yl)-methyl]-4-methylpyridin-2(M)-one] | 
